Experiments:
Plutella xylostella = assay: Insecticidal test against Plutella xylostella; conditions: 500 ppm drug solution, Chinese cabbage seedlings with eggs immersed about 30 sec, six days after immersion, 25° C.
Source text: Insecticidal Test Against Plutella xylostella
Six days after the immersion in the drug solution, the number of surviving insects was examined. […] In triplicate using 10 per plot.

Laodelphax striatellus = assay: Insecticidal test against Laodelphax striatellus; conditions: 500 ppm drug solution, rice seedlings immersed 30 seconds, three-instar insects, eight days after inoculation
[1] = tested on: Frankliniella occidentalis; assay: Insecticidal test against Frankliniella occidentalis; conditions: 500 ppm drug solution sprayed on hatched larvae on Phaseolus vulgaris leaf pieces, four days after treatment
Source text: Insecticidal Test Against Frankliniella occidentalis
Female adults of Frankliniella occidentalis were inoculated onto Phaseolus vulgaris leaf pieces, and after allowing them to lay eggs for one day, the female adults were removed. […] Four days after the treatment, the number of surviving larvae of this species larvae was examined. […] In duplicate.

Dirofilaria immitis = assay: Influence evaluation test on the growth of Dirofilaria immitis; conditions: 168 h, read-out: development inhibition rate from the L3 stage larva to the L4-stage larva

Row | Compound | corrected mortality, rating of assessment (Plutella xylostella) | corrected mortality, rating of assessment (Laodelphax striatellus) | corrected mortality, rating of assessment [1] | inhibition at 10 µM (Dirofilaria immitis) [%]
1 | CN1C(=O)C(C(=O)Nc2ccc(Cl)cc2)=C(O)CC1c1ccc(C(F)(F)F)cc1 (centres unmarked) [1-4] | D or higher | D or higher | – | –
2 | O=C(Nc1ccc(F)cc1)C1=C(O)CC(c2ccc(C(F)(F)F)cc2)N(Cc2ccccc2)C1=O (centres unmarked) [1-5] | D or higher | – | D or higher | –
3 | CN1C(=O)C(C(=S)Nc2ccc(F)cc2)=C(O)CC1c1ccc(C(F)(F)F)cc1 (centres unmarked) [1-8] | D or higher | – | D or higher | –
4 | CN1C(=O)C(C(=O)Nc2ccc(F)cn2)=C(O)CC1c1ccc(C(F)(F)F)cc1 (centres unmarked) [1-10] | D or higher | – | – | –
5 | CN1C(=O)C(C(=S)Nc2ccc(F)cn2)=C(O)CC1c1ccc(C(F)(F)F)cc1 (centres unmarked) [1-11] | D or higher | – | – | –
6 | CN1C(=O)C(C(=O)Nc2ccc(F)cc2)=C(O)CC1c1ccc(C(F)(F)F)nc1 (centres unmarked) [1-12] | D or higher | D or higher | – | –
7 | CN1C(=O)C(C(=O)Nc2ccc(F)cn2)=C(O)CC1c1ccc(C(F)(F)F)nc1 (centres unmarked) [1-13] | D or higher | D or higher | – | –
8 | CN1C(=O)C(C(=O)Nc2ccc(F)nc2)=C(O)CC1c1ccc(C(F)(F)F)cc1 (centres unmarked) [1-14] | D or higher | D or higher | D or higher | –
9 | CN1C(=O)C(C(=O)Nc2ncc(F)cn2)=C(O)CC1c1ccc(C(F)(F)F)cc1 (centres unmarked) [1-15] | D or higher | – | – | –
10 | C#CCNC(=O)C1=C(O)CC(c2ccc(C(F)(F)F)cc2)N(C)C1=O (centres unmarked) [1-27] | D or higher | – | – | –
11 | CCCN1C(=O)C(C(=O)Nc2ccc(F)cn2)=C(O)CC1c1ccc(C(F)(F)F)nc1 (centres unmarked) [1-31] | D or higher | D or higher | D or higher | –
12 | CCCN1C(=O)C(C(=O)Nc2ccc(F)cc2)=C(O)CC1c1ccc(C(F)(F)F)nc1 (centres unmarked) [1-32] | D or higher | D or higher | – | –
13 | C#CCN1C(=O)C(C(=O)Nc2cc(C)on2)=C(O)CC1c1ccc(C(F)(F)F)nc1 (centres unmarked) [1-33] | D or higher | D or higher | D or higher | –
14 | C#CCN1C(=O)C(C(=O)Nc2ccn(C)n2)=C(O)CC1c1ccc(C(F)(F)F)nc1 (centres unmarked) [1-34] | D or higher | D or higher | – | –
15 | C#CCN1C(=O)C(C(=O)Nc2ccnc(F)c2)=C(O)CC1c1ccc(C(F)(F)F)nc1 (centres unmarked) [1-35] | D or higher | D or higher | – | –
16 | C#CCN1C(=O)C(C(=O)Nc2ccc(F)cn2)=C(O)CC1c1ccc(Cl)nc1 (centres unmarked) [1-36] | D or higher | D or higher | D or higher | –
17 | C#CCN1C(=O)C(C(=O)Nc2ccc(F)cn2)=C(O)CC1c1ccc(SC)cc1 (centres unmarked) [1-37] | D or higher | D or higher | – | –
18 | C#CCN1C(=O)C(C(=O)Nc2ccc(F)cn2)=C(O)CC1c1ccc([S+](C)[O-])cc1 (centres unmarked) [1-38] | D or higher | D or higher | – | –
19 | C#CCN1C(=O)C(C(=O)Nc2ccc(F)cn2)=C(O)CC1c1ccc(S(C)(=O)=O)cc1 (centres unmarked) [1-39] | D or higher | D or higher | – | –
20 | C#CCN1C(=O)C(C(=O)Nc2ccc(SC)cc2)=C(O)CC1c1ccc(C(F)(F)F)nc1 (centres unmarked) [1-41] | – | D or higher | – | –
21 | C#CCN1C(=O)C(C(=O)Nc2ccc([S+](C)[O-])cc2)=C(O)CC1c1ccc(C(F)(F)F)nc1 (centres unmarked) [1-42] | – | D or higher | – | –
22 | C#CCN1C(=O)C(C(=O)Nc2ccc(S(C)(=O)=O)cc2)=C(O)CC1c1ccc(C(F)(F)F)nc1 (centres unmarked) [1-43] | – | D or higher | – | –
23 | C#CCN1C(=O)C(C(=O)Nc2ccc(F)cc2)=C(O)CC1c1ccc(SC)cc1 (centres unmarked) [1-44] | D or higher | – | – | –

Row | Compound | corrected mortality, rating of assessment (Plutella xylostella) | corrected mortality, rating of assessment (Laodelphax striatellus) | corrected mortality, rating of assessment [1] | inhibition at 10 µM (Dirofilaria immitis) [%]
24 | CN1C(=O)C(C(=O)Nc2ccc(SC(F)(F)F)cc2)=C(O)CC1c1ccc(C(F)(F)F)nc1 (centres unmarked) [1-49] | D or higher | – | – | –
25 | CN1C(=O)C(C(=O)Nc2ccc(NS(C)(=O)=O)cc2)=C(O)CC1c1ccc(C(F)(F)F)nc1 (centres unmarked) [1-60] | D or higher | – | – | –
26 | O=C1NCC(c2ccccc2C(F)(F)F)C(O)=C1C(=O)Nc1ccccc1F (centres unmarked) [3-3] | D or higher | – | – | –
27 | O=C1NCC(c2ccc(Cl)cc2)C(O)=C1C(=O)Nc1ccc(F)cc1 (centres unmarked) [3-10] | D or higher | – | – | –
28 | CN1CC(C)(c2ccc(C(F)(F)F)cc2)C(O)=C(C(=O)Nc2ccc(F)cc2)C1=O (centres unmarked) [3-11] | D or higher | – | – | –
29 | CN1CC(C)(c2ccc(C(F)(F)F)cc2)C(O)=C(C(=O)Nc2ccc(C(F)(F)F)cc2)C1=O (centres unmarked) [3-12] | D or higher | – | – | –
30 | CCC1(c2ccc(C(F)(F)F)cc2)CN(C)C(=O)C(C(=S)Nc2ccc(F)cn2)=C1O (centres unmarked) [3-23] | D or higher | D or higher | – | –
31 | CCC1(c2ccc(C(F)(F)F)cc2)CNC(=O)C(C(=O)Nc2ccc(F)cc2)=C1O (centres unmarked) [3-24] | D or higher | D or higher | – | –
32 | CCC1(c2ccc(C(F)(F)F)cc2)CN(C)C(=O)C(C(=O)Nc2ncc(F)cn2)=C1O (centres unmarked) [3-26] | – | D or higher | – | –
33 | CCC1(c2ccc(C(F)(F)F)cc2)CN(C)C(=O)C(C(=O)NN2CCOCC2)=C1O (centres unmarked) [3-27] | – | D or higher | – | –
34 | CCC1(c2ccc(C(F)(F)F)cc2)CN(C)C(=O)C(C(=O)Nc2cnc3ccccc3c2)=C1O (centres unmarked) [3-29] | D or higher | – | – | –
35 | CCC1(c2ccc(C(F)(F)F)cc2)CN(C)C(=O)C(C(=O)Nc2ccc(OC)cc2)=C1O (centres unmarked) [3-31] | D or higher | D or higher | – | –
36 | CCC1(c2ccc(C(F)(F)F)cc2)CN(C)C(=O)C(C(=O)Nc2ccc(C)cc2)=C1O (centres unmarked) [3-34] | D or higher | – | – | –
37 | CCC1(c2ccc(C(F)(F)F)cc2)CN(C)C(=O)C(C(=O)Nc2ccc(S(C)(=O)=O)cc2)=C1O (centres unmarked) [3-35] | D or higher | D or higher | – | –
38 | CCC1(c2ccc(C(F)(F)F)cc2)CN(C)C(=O)C(C(=O)Nc2ccc(C3CC3)cc2C)=C1O (centres unmarked) [3-38] | D or higher | – | – | –
39 | CN1C(=O)C(C(=O)Nc2ccc(C(F)(F)F)cc2)=C(O)CC1c1ccc(C(F)(F)F)cc1 (centres unmarked) [compound No. 1-1, 4-hydroxy-1-methyl-2-oxo-N, 6-bis(4-(trifluoromethyl)phenyl)-1,2,5,6-tetrahydropyridine-3-carboxamide] | D or higher | – | – | –
40 | CN1C(=O)C(C(=O)Nc2ccc(OC(F)(F)F)cc2)=C(O)CC1c1ccc(C(F)(F)F)cc1 (centres unmarked) [compound No. 1-2] | D or higher | – | – | –
41 | CN1C(=O)C(C(=O)NCc2ccc(F)cc2)=C(O)CC1c1ccc(C(F)(F)F)cc1 (centres unmarked) [compound No. 1-3] | D or higher | – | – | –
42 | CN1C(=O)C(C(=S)Nc2ccc(C(F)(F)F)cc2)=C(O)CC1c1ccc(C(F)(F)F)cc1 (centres unmarked) [compound No. 1-9, 4-hydroxy-1-methyl-2-oxo-N, 6-bis(4-(trifluoromethyl)phenyl)-1,2,5,6-tetrahydropyridine-3-carbothioamide] | D or higher | – | D or higher | –
43 | O=C(Nc1ccc(F)cc1)C1=C(S)CC(c2ccc(C(F)(F)F)nc2)NC1=O (centres unmarked) [compound No. 1-28, N-(4-fluorophenyl)-4-mercapto-6-oxo-6′-(trifluoromethyl)-1,2,3,6-tetrahydro-[2,3′-bipyridine]-5-carboxamide] | D or higher | D or higher | D or higher | –
44 | CSC1=C(C(=O)Nc2ccc(F)cc2)C(=O)NC(c2ccc(C(F)(F)F)nc2)C1 (centres unmarked) [compound No. 1-29, N-(4-fluorophenyl)-4-(methylthio)-6-oxo-6′-(trifluoromethyl)-1,2,3,6-tetrahydro-[2,3′-bipyridine]-5-carboxamide] | D or higher | – | – | –
45 | C[S+]([O-])C1=C(C(=O)Nc2ccc(F)cc2)C(=O)NC(c2ccc(C(F)(F)F)nc2)C1 (centres unmarked) [compound No. 1-30, N-(4-fluorophenyl)-4-(methylsulfinyl)-6-oxo-6′-(trifluoromethyl)-1,2,3,6-tetrahydro-[2,3′-bipyridine]-5-carboxamide] | D or higher | D or higher | D or higher | –
46 | CN1CC(C)(c2ccc(C(F)(F)F)cc2)C(O)=C(C(=S)Nc2ccc(F)cc2)C1=O (centres unmarked) [compound No. 3-14, N-(4-fluorophenyl)-4-hydroxy-1,5-dimethyl-2-oxo-5-(4-(trifluoromethyl)phenyl)-1,2,5,6-tetrahydropyridine-3-carbothioamide] | – | – | – | ≥ 50
